From patent US8450333B2, “Molecules for regulating cell death” (The Regents of The University of California, priority 2003, dated 2013)

Key:
wild type yeast cells = test: Mitochondrial morphology in yeast (secondary screen, mitochondrial targeted GFP); assay type: cell-based, S. cerevisiae; conditions: for % fragmented / % nets / % reticular: Structure Function Analysis of Compound A1, yeast; for % net-like structures: yeast, each at a concentration of 50 μM
Description: Secondary screens: Compounds identified in the primary growth assay-based screens outlined above are screened secondarily by examining their effects on mitochondrial morphology. We use the steady state structure of mitochondria as an indicator of the relative rates of mitochondrial fission and fusion in cells. […] Mitochondria are visualized using a mitochondrial targeted GFP that is efficiently targeted to both wild type and respiratory deficient mitochondria (Tieu et al., 2000 The Journal of Cell Biology 151, 353-365.).
All compounds identified in the primary growth assay-based screens outlined above were screened secondarily by examining their effects on mitochondrial morphology in yeast. From previous work, we know that the steady state structure of mitochondria is an indicator of the relative rates of mitochondrial fission and fusion in cells (FIG. 7). Specifically, net-like structures indicate a block in fission, and fragmented mitochondrial structures indicate a block in fusion. […] In this secondary assay, small molecules were judged to be a hit if they produced a mutant phenotype in greater than 5% of the cell population.
To determine what structural features are important for the effects of mfisi-1 on mitochondrial fission, we identified structurally related molecules using a chemoinformatics approach. We utilized web-based ChemNavigator to search available public and commercial compound databases for small molecules that uniquely represented key structural features of mfisi-1. We tested a total of 15 small molecules related to mfisi-1 for their effects on mitochondrial morphology in yeast, each at a concentration of 50 μM (Table 3).

[1] = tested on: actin cytoskeleton and peripheral ER network; test: Actin cytoskeleton and peripheral ER network in yeast; assay type: cell-based; conditions: added after mfisi-1 treatment
Description: These structures are routinely examined in yeast mitochondrial morphology mutants as a test for the specificity of the mitochondrial phenotype.

mammalian COS cells = test: Mitochondrial fragmentation induced by staurosporine (STS) in COS cells; assay type: cell-based; conditions: COS cells stimulated with STS; mfisi-1 at 50 μM; n=100
Description: As indicated above, we observed that mfisi-1 causes changes in mitochondrial morphology in mammalian cells that are consistent with a block in mitochondrial fission. Thus, we examined the effects of mfisi-1 on mitochondrial fragmentation caused by the intrinsic apoptotic stimulus staurosporine (STS) in mammalian COS cells. […] These observations indicate that mfisi-1 retards apoptosis-stimulated Drp1-dependent mitochondrial fission.

SMILES | % fragmented (wild type yeast cells) [%] | % nets (wild type yeast cells) [%] | % reticular (wild type yeast cells) [%] | % net-like structures (wild type yeast cells) [%] | further results
COc1ccccc1-n1c(S)nc2ccccc2c1=O [drawing 16] | 32 | 0 | 68 | – | –
CCSc1nc2ccccc2c(=O)n1-c1cccc(C)c1 [drawing 12] | 51 | 1 | 48 | – | –
CSc1nc2cc(Cl)ccc2c(=O)n1-c1cc(OC(C)C)c(Cl)cc1Cl [mfisi-1.3, 7-chloro-3-(2,4-Dichloro-5-isopropoxy-phenyl)-2-methylsulfanyl-3H-quinazolin-4-one] | – | – | – | 2 | –
C=CCSc1nc2ccccc2c(=O)n1-c1cccc(C)c1 [drawing 13] | 8 | 1 | 91 | – | –
O=c1c2ccccc2nc(S)n1Cc1ccccc1 | 6 | 5 | 89 | – | –
C/C1=C/C(=O)O[C@@H]2C[C@@H](CC[C@H](C)/C=C\C=C\CC1)O[C@@](O)([C@@H]1CSC(=O)N1)C2 [Latrunculin-A] | – | – | – | – | effect on actin cables and patches [1]: complete disruption of actin cables and patches; effect on mitochondrial nets [1]: caused mitochondrial nets to collapse and aggregate
COc1cc(-n2c(SC)nc3cc(Cl)ccc3c2=O)c(Cl)cc1Cl [mfisi-1.1, 7-chloro-3-(2,4-Dichloro-5-methoxy-phenyl)-2-methylsulfanyl-3H-quinazolin-4-one] | – | – | – | 7 | –
Cc1cccc(-n2c(S)nc3ccccc3c2=O)c1 [2-Mercapto-3-m-tolyl-3H-quinazolin-4-one] | – | – | – | 0 | –
O=C(O)CSc1nc2ccccc2c(=O)n1-c1ccccc1 [drawing 11] | 8 | 5 | 87 | – | –
C=CCSc1nc2ccccc2c(=O)n1-c1cccc(C)c1 [2-Allylsulfanyl-3-m-tolyl-3H-quinazolin-4-one] | – | – | – | 1 | –
CSc1nc2ccccc2c(=O)n1-c1cccc(C)c1 [2-Methylsulfanyl-3-m-tolyl-3H-quinazolin-4-one] | – | – | – | 0 | –
O=c1c2ccccc2nc2n1CCS2 [drawing 19] | 7.3 | 0 | 92.7 | – | –
COc1cc(-n2c(SC)nc3ccccc3c2=O)c(Cl)cc1Cl [mfisi-1.2, 3-(2,4-Dichloro-5-methoxy-phenyl)-2-methylsulfanyl-3H-quinazolin-4-one] | – | – | – | 7 | –
CN[C@@H]1C[C@H]2O[C@@](C)([C@@H]1OC)n1c3ccccc3c3c4c(c5c6ccccc6n2c5c31)C(=O)NC4 [STS, staurosporine, reference compound] | – | – | – | – | % collapsed nets (mammalian COS cells): 0%; % fragmented (mammalian COS cells): 86%; % loose nets (mammalian COS cells): 0%; % reticular (mammalian COS cells): 14%
C=CCSc1nc2ccccc2c(=O)n1Cc1ccccc1 [2-Allylsulfanyl-3-benzyl-3H-quinazolin-4-one] | – | – | – | 0 | –
COc1cc(-n2c(SC)nc3ccc(Cl)cc3c2=O)c(Cl)cc1Cl [mfisi-1.4, 6-chloro-3-(2,4-Dichloro-5-methoxy-phenyl)-2-methylsulfanyl-3H-quinazolin-4-one] | – | – | – | 2 | –
O=C(O)CSc1nc2ccccc2c(=O)n1-c1ccccc1 [(4-oxo-3-phenyl-3,4-dihydro-quinazolin-2-ylsulfanyl)-acetic acid] | – | – | – | 5 | –
Cc1cccc(-n2c(S)nc3ccccc3c2=O)c1 [drawing 15] | 0 | 0 | 100 | – | –
O=c1c2ccccc2nc2n1CCS2 [2,3-Digydor-thiazolo[2,3-b]quinazolin-4-one] | – | – | – | 0 | –
Cc1ccccc1-n1c(S)nc2ccccc2c1=O [2-Mercapto-3-o-tolyl-3H-quinazolin-4-one] | – | – | – | 30 | –
COc1ccccc1-n1c(S)nc2ccccc2c1=O [2-Mercapto-3-(2-methoxy-phenyl)-3H-quinazolin-4-one] | – | – | – | 0 | –
CSc1nc2ccccc2c(=O)n1-c1cccc(C)c1 [drawing 14] | 6 | 0 | 94 | – | –
CCSc1nc2ccccc2c(=O)n1-c1cccc(C)c1 [2-Ethylsulfanyl-3-m-tolyl-3H-quinazolin-4-one] | – | – | – | 2 | –
C=CCSc1nc2ccccc2c(=O)n1Cc1ccccc1 [drawing 17] | 69 | 0 | 31 | – | –
CSc1nc2ccccc2c(=O)n1Cc1ccccc1 [3-Benzyl-2-methylsulfanyl-3H-quinazolin-4-one] | – | – | – | 5 | –
C=CCSc1nc2ccccc2c(=O)n1-c1ccccc1OC [drawing 18] | 3.2 | 0 | 96.8 | – | –
C=CCSc1nc2ccccc2c(=O)n1-c1ccccc1OC [2-Allylsulfanyl-(2-methoxy-phenyl)-3H-quinazolin-4-one] | – | – | – | 0 | –
COc1cc(-n2c(SC)nc3ccccc3c2=O)c(Cl)cc1Cl [drawing 9] | 11 | 7 | 82 | – | –
Cc1ccccc1-n1c(S)nc2ccccc2c1=O [drawing 8] | 8 | 29 | 63 | – | –
